Patent US20230295201A1 (Gilead Sciences, Inc., priority 2020, published 2023)
pEC50: −log10 of the molar value. Like-named read-outs stand apart in the source and are kept apart here.

Key:
Type in all cases: cell-based
[1] = tested on: RSV strain A2; experiment: RSV HEp-2 EC50 (infectious cytopathic cell protection assay); details: human respiratory syncytial virus, HEp-2 cells, RSV A2, 4 days, read-out: RSV HEp-2 EC50
Outline: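 Percent inhibition of RSV-induced cytopathic effect came from remaining cell viability (CellTiter-Glo luminescence) after 4 days at 37° C. Compounds in 3-fold serial dilutions were exposed to an infectious mix of titered A2 virus and HEp-2 cells at 50,000/ml, with 0% and 100% inhibition control standards.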

[2] = tested on: RSV A2; experiment: RSV NHBE EC50 (RSV A2 antiviral assay in normal human bronchial epithelial cells); details: human respiratory syncytial virus, 96 h, NHBE cells, RSV A2, 4 days, read-out: RSV NHBE EC50
[3] = tested on: HRV16; experiment: HRV16 HELA EC50 (cytopathic effect in H1-HeLa cells)
Method: H1-HeLa cells, cultured in complete DMEM medium containing 10% heat-inactivated FBS and 1% Penicillin/Streptomycin, were seeded in 96 well plates at 3000 cells/well one day prior to compound dosing and infection. The antiviral activity of each compound was measured in triplicate. Compounds were added directly to the cell cultures in serial 3-fold dilutions using the HP300 digital dispenser (Hewlett Packard, Palo Alto, CA) immediately prior to infection. The plates were transferred to BSL-2 containment and the appropriate dilution of virus stock, previously determined by titration and prepared in cell culture media, was added to test plates containing cells and serially diluted compounds. Each plate included 6 wells of infected untreated cells and 6 wells of uninfected cells that served as 0% and 100% virus inhibition control, respectively. Following the infection, test plates were incubated for 96 h in a tissue culture incubator set to 33° C./5% CO2. Following incubation, the H1-HeLa cells were removed from incubation and allowed to equilibrate to 25° C. Cell viability was determined by removing 100 μL of culture medium and adding 100 μL of Cell-Titer Glo viability reagent. The mixtures were incubated on a shaker for 10 minutes at 25° C., and the luminescence signal was quantified on an Envision luminescence plate reader.

[4] = tested on: DENV2 replicon; experiment: DENV-2 Huh-7 Rep EC50 (replicon luminescence); details: Dengue virus, DENV2, Huh-7, 48 h, read-out: DENV-2 Huh-7 Rep EC50
Method: In 384 well plates (Greiner, Cat #781091), compounds were acoustically transferred at 200 nl per well in a 8 compound (4 replicates) or 40 compound dose response format (3 replicates). For all plates tested, Balapiravir, GS-5734 and NITD008 were included as positive inhibition controls alongside 0% inhibition, DMSO-only negative control wells. Following compound addition, Huh-7 cells containing the DENV2 replicon construct were harvested following standard cell culture procedures and were adjusted to a concentration of 1.25E5 cells/mL in cell culture media composed of cDMEM without genticin. 40 μL of the cell stock was then added to each well for a final cell density of 5,000 cells/well. Cell and compound mixtures were incubated at 37° C./5% CO2 for 48 hours. Prior to harvesting cells, EnduRen Live Cell Substrate (Promega, Cat #E6481) was prepared by suspending 3.4 mg into 100 uL of DMSO to generate a 60 mM stock solution. The stock solution was then diluted 1:200 in pre-warmed cDMEM and 10 uL of this diluted solution was added to each well of the 384 well plates. Plates were then centrifuged at 500 rpm briefly and were placed on a plate shaker for 2 min. Following mixing, plates were incubated at […] for 1.5 hours prior to measuring luminescence on an Envision luminometer.

[5] = 96 h, H1-HeLa cells, 33° C., read-out: HRV16 HELA EC50

Row | SMILES | pEC50 ([1]; HEp-2, 96 h) | pEC50 ([2]; NHBE) | pEC50 [3, 5] | pEC50 ([4]; Huh-7 replicon cells, 48 hours) | pEC50 ([1]; 96 h) | pEC50 [2] | pEC50 ([3]; H1-HeLa cells, 96 h, 33° C.; read-out: HRV16 HELA EC50) | pEC50 [4]
1 | CC(C)OC(=O)C1(NP(=O)(OC[C@@]2(C#N)O[C@@H](c3ccc4c(N)ncnn34)[C@H](O)[C@@H]2O)Oc2ccccc2)CCC1 (mixture of isomers) [Example 95, isopropyl 1-(((((2R,3S,4R,5S)-5-(4-aminopyrrolo[2,1-f][1,2,4]triazin-7-yl)-2-cyano-3,4-dihydroxytetrahydrofuran-2-yl)methoxy)(phenoxy)phosphoryl)amino)cyclobutanecarboxylate] | 4.82 | < 5.30 | < 4.37 | < 4.30 |  |  |  | 
2 | CCOC(=O)C1(NP(=O)(OC[C@@]2(C#N)O[C@@H](c3ccc4c(N)ncnn34)[C@H](O)[C@@H]2O)Oc2ccccc2)CC1 (mixture of isomers) [Example 106, ethyl 1-(((((2R,3S,4R,5S)-5-(4-aminopyrrolo[2,1-f][1,2,4]triazin-7-yl)-2-cyano-3,4-dihydroxytetrahydrofuran-2-yl)methoxy)(phenoxy)phosphoryl)amino)cyclopropanecarboxylate] | < 4.37 | < 5.30 | < 4.00 | < 4.00 |  |  |  | 
3 | N#C[C@]1(COP(=O)(NCC(=O)OC2CCCC2)Oc2ccccc2)O[C@@H](c2ccc3c(N)ncnn23)[C@H](O)[C@@H]1O (mixture of isomers) [Example 112, cyclopentyl 2-(((((2R,3S,4R,5S)-5-(4-aminopyrrolo[2,1-f][1,2,4]triazin-7-yl)-2-cyano-3,4-dihydroxytetrahydrofuran-2-yl)methoxy)(phenoxy)phosphoryl)amino)acetate] | 5.85 | 6.33 | 5.43 | < 4.30 |  |  |  | 
4 | CCC(CC)OC(=O)[C@H](CC)NP(=O)(OC[C@@]1(C#N)O[C@@H](c2ccc3c(N)ncnn23)[C@H](O)[C@@H]1O)Oc1ccccc1 (mixture of isomers) [Example 115, (2S)-pentan-3-yl 2-(((((2R,3S,4R,5S)-5-(4-aminopyrrolo[2,1-f][1,2,4]triazin-7-yl)-2-cyano-3,4-dihydroxytetrahydrofuran-2-yl)methoxy)(phenoxy)phosphoryl)amino)butanoate] | 5.06 | 5.81 | 4.99 | < 4.30 |  |  |  | 
5 | CC(C)C[C@H](NP(=O)(OC[C@@]1(C#N)O[C@@H](c2ccc3c(N)ncnn23)[C@H](O)[C@@H]1O)Oc1ccccc1)C(=O)OCC1CC1 (mixture of isomers) [Example 130, (2S)-cyclopropylmethyl 2-(((((2R,3S,4R,5S)-5-(4-aminopyrrolo[2,1-f][1,2,4]triazin-7-yl)-2-cyano-3,4-dihydroxytetrahydrofuran-2-yl)methoxy)(phenoxy)phosphoryl)amino)-4-methylpentanoate] | 5.45 | 6.36 | 5.14 | < 4.00 |  |  |  | 
6 | C[C@H](NP(=O)(OC[C@@]1(C#N)O[C@@H](c2ccc3c(N)ncnn23)[C@H](O)[C@@H]1O)Oc1ccccc1)C(=O)O[C@@H]1CCNC1 (mixture of isomers) [Example 137, (2S)—(R)-pyrrolidin-3-yl 2-(((((2R,3S,4R,5S)-5-(4-aminopyrrolo[2,1-f][1,2,4]triazin-7-yl)-2-cyano-3,4-dihydroxytetrahydrofuran-2-yl)methoxy)(phenoxy)phosphoryl)amino)propanoate] | 5.43 | < 5.30 | 4.57 | < 4.30 |  |  |  | 
7 | C[C@H](NP(=O)(OC[C@@]1(C#N)O[C@@H](c2ccc3c(N)ncnn23)[C@H](O)[C@@H]1O)Oc1ccccc1)C(=O)O[C@H]1CC[C@H](C)CC1 (mixture of isomers) [Example 142, (2S)-(1r,4S)-4-methylcyclohexyl 2-(((((2R,3S,4R,5S)-5-(4-aminopyrrolo[2,1-f][1,2,4]triazin-7-yl)-2-cyano-3,4-dihydroxytetrahydrofuran-2-yl)methoxy)(phenoxy)phosphoryl)amino)propanoate] | 6.60 | 7.21 | 6.79 | 4.91 |  |  |  | 
8 | C[C@H](NP(=O)(OC[C@@]1(C#N)O[C@@H](c2ccc3c(N)ncnn23)[C@H](O)[C@@H]1O)Oc1ccccc1)C(=O)OC1CCNCC1 (mixture of isomers) [Example 145, (2S)-piperidin-4-yl 2-(((((2R,3S,4R,5S)-5-(4-aminopyrrolo[2,1-f][1,2,4]triazin-7-yl)-2-cyano-3,4-dihydroxytetrahydrofuran-2-yl)methoxy)(phenoxy)phosphoryl)amino)propanoate] | 5.54 | < 5.30 | 4.34 | < 4.00 |  |  |  | 
9 | CC(NP(=O)(OC[C@@]1(C#N)O[C@@H](c2ccc3c(N)ncnn23)[C@H](O)[C@@H]1O)Oc1ccccc1)C(=O)O[C@H]1CCNC1=O (mixture of isomers) [Example 153, (S)-2-oxopyrrolidin-3-yl ((((2R,3S,4R,5S)-5-(4-aminopyrrolo[2,1-f][1,2,4]triazin-7-yl)-2-cyano-3,4-dihydroxytetrahydrofuran-2-yl)methoxy)(phenoxy)phosphoryl)alaninate] | 5.15 | < 5.30 | 4.90 | < 4.00 |  |  |  | 
10 | C[C@H](NP(=O)(OC[C@@]1(C#N)O[C@@H](c2ccc3c(N)ncnn23)[C@H](O)[C@@H]1O)Oc1ccccc1)C(=O)OC1CCCC(C)(C)C1 (mixture of isomers) [Example 154, 3,3-dimethylcyclohexyl ((((2R,3S,4R,5S)-5-(4-aminopyrrolo[2,1-f][1,2,4]triazin-7-yl)-2-cyano-3,4-dihydroxytetrahydrofuran-2-yl)methoxy)(phenoxy)phosphoryl)-L-alaninate] | 5.57 | 6.51 | 5.71 | 4.29 |  |  |  | 
11 | C[C@H](NP(=O)(OC[C@@]1(C#N)O[C@@H](c2ccc3c(N)ncnn23)[C@H](O)[C@@H]1O)Oc1ccccc1)C(=O)O[C@H]1CCCC[C@@H]1C (mixture of isomers) [Example 155, trans-2-methylcyclohexyl ((((2R,3S,4R,5S)-5-(4-aminopyrrolo[2,1-f][1,2,4]triazin-7-yl)-2-cyano-3,4-dihydroxytetrahydrofuran-2-yl)methoxy)(phenoxy)phosphoryl)-L-alaninate] | 5.36 | 5.80 | 5.38 | 4.07 |  |  |  | 
12 | C[C@H](NP(=O)(OC[C@@]1(C#N)O[C@@H](c2ccc3c(N)ncnn23)[C@H](O)[C@@H]1O)Oc1ccccc1)C(=O)OC1CCC(F)(F)CC1 (mixture of isomers) [Example 174, 4,4-difluorocyclohexyl ((((2R,3S,4R,5S)-5-(4-aminopyrrolo[2,1-f][1,2,4]triazin-7-yl)-2-cyano-3,4-dihydroxytetrahydrofuran-2-yl)methoxy)(phenoxy)phosphoryl)-L-alaninate] | 6.59 | 5.86 | 6.13 | 4.47 |  |  |  | 
13 | CCC(CC)COC(=O)[C@H](C)NP(=O)(N[C@@H](C)C(=O)OC)OC[C@@]1(C#N)O[C@@H](c2ccc3c(N)ncnn23)[C@H](O)[C@@H]1O (mixture of isomers) [Example 221, 2-Ethylbutyl ((((2R,3S,4R,5S)-5-(4-aminopyrrolo[2,1-f][1,2,4]triazin-7-yl)-2-cyano-3,4-dihydroxytetrahydrofuran-2-yl)methoxy)(((S)-1-methoxy-1-oxopropan-2-yl)amino)phosphoryl)-L-alaninate] |  |  |  |  | 5.93 | < 5.98 | 5.07 | < 4.00
14 | CC(C)OC(=O)[C@H](C)N[P@](=O)(OC[C@@]1(C#N)O[C@@H](c2ccc3c(N)ncnn23)[C@H](O)[C@@H]1O)Oc1ccccc1 (single isomer, unassigned) [Example 1] | 6.47 | 6.06 | 6.02 | < 4.30 |  |  |  | 
